We go through six compounds from ChEMBL document CHEMBL1128991, “Trishomocubanes, a new class of selective and high affinity ligands for the sigma binding site” (Bioorg Med Chem Lett, 1996).

The experiment in a line: Binding affinity towards NMDA receptor ion channel (PCP site) was determined.
For orientation: Ki means the equilibrium dissociation constant of an inhibitor or competing ligand from its target. The compound `OC12C3C4CC5C6C4C1C6C(C53)N2Cc1cccc(Br)c1` (stereo unspecified) gave a Ki greater than 10 µM.
Consider `c1ccc(CNC2C3C4CC5C6C4C2C6C2(OCCO2)C53)cc1` (stereo unspecified), for which the Ki is greater than 10 µM.
Consider `OC12C3C4CC5C6C4C1C6C(C53)N2Cc1ccccc1` (stereo unspecified), for which the Ki is greater than 10 µM.
In turn, `Ic1cccc(CNC2C3C4CC5C6C4C2C6C2(OCCO2)C53)c1` (stereo unspecified) showed a Ki greater than 10 µM.
For `Brc1cccc(CNC2C3C4CC5C6C4C2C6C2(OCCO2)C53)c1` (stereo unspecified), the inhibition constant (Ki) was greater than 10 µM.
Then `Ic1ccc(CNC2C3C4CC5C6C4C2C6C2(OCCO2)C53)cc1` (stereo unspecified), with greater than 10 µM.
